Row | SMILES | melting point
1 | CC(C)c1ccc(C(=O)Nc2cn3cc(-n4ccnc4)ccc3n2)cc1 | 291 to 293 °C
2 | COc1ccc(-n2nc(Br)cc2-c2ccc(SC)cc2)cc1 | 144 to 145 °C
3 | CCOC(=O)Nc1cc(O)c(Cl)cc1F | 152 to 154 °C
4 | O=C(O)[C@@H]1Cc2cc(Cl)cc(Cl)c2O[C@@H]1C(F)(F)F | 100 to 101 °C
5 | COc1cc(COc2nn(Cc3ccccc3)cc2C(N)=O)ccc1OCc1nc(-c2ccccc2)oc1C | 164 to 165 °C
6 | COCOc1ccc(-c2ccc(OCOC)c(F)c2)cc1F | 76.3 to 77.3 °C
7 | N=C(N)Nc1nc(-c2csc(N)n2)cs1 | 274 °C
8 | O=C(O)c1ccc(Br)cc1COc1ccccc1 | 160 to 163 °C
9 | Cc1n[nH]c(=O)n1-c1ccc([N+](=O)[O-])cc1 | 226 °C
10 | COc1c(Cl)ccc(-c2cc(N)c(Cl)c(C(=O)NOCc3ccoc3)n2)c1F | 160 to 162 °C
11 | CCOC(=O)C(C#N)=CC1C=C(OC)C(C(=O)OC)=C(OC)C1 (centres undefined) | 119 to 121 °C
12 | COc1ccc(CCOc2cccc(-c3cccc(C(N)=O)c3)n2)cc1OC | 141 to 142 °C
13 | CCCc1c(OCCCOc2ccc(C(=O)C(=O)OCC)cc2)ccc(C(=O)OC)c1O | 62 to 64 °C
14 | O=C(O)c1cc(OCc2ccccc2)c(Cc2ccccc2)c(S(=O)(=O)Cl)c1 | 164 to 166 °C
15 | CC(C)(C)c1cc(C=C2SCN(CCO)C2=O)cc(C(C)(C)C)c1O | 131 to 135 °C
16 | COc1ccc(N2CCOCC2)c2sc(NC(=O)N3CCC(C)(O)CC3)nc12 | 236 °C
17 | c1ccc(-c2noc(COc3ccc(CCCn4ccnc4)cc3)n2)cc1 | 124 to 125 °C
18 | O=C(O)CCCCCC(c1cc(F)ccc1F)S(=O)(=O)c1ccc(Cl)cc1 (centres undefined) | 72 to 76 °C
19 | O=C(Nc1cccc(-c2nnn[nH]2)c1)NC1N=C(c2ccccc2F)c2cccc(Cl)c2N(CC(=O)N2CC3CCC(CC3)C2)C1=O (centres undefined) | 172 to 180 °C
20 | Cc1cc(O)cc(O)c1C(=O)NNC(=O)C(O)c1ccccc1 (centres undefined) | 188 to 189 °C
21 | CCOC(=O)NC(C)CC(NC(=O)OCC)NC(=O)OCC (centres undefined) | 103 to 105 °C
22 | CNC1c2ccccc2-c2[nH]c(=O)c3nccn3c21 (centres undefined) | 184 °C
23 | CNCc1cn(-c2ccccc2)nc1OCc1ccc(OCc2nc(-c3ccco3)oc2C)c(OC)c1 | 103 to 104 °C
24 | COCCOCCOCC(=O)Nc1cc(N)cc(C(=O)O)c1 | 130 to 131 °C
25 | O=C(NCC1(c2ccccc2)CCCC1)Nc1ccc(F)cc1F | 160 to 161 °C

Row | SMILES | melting point
26 | Cc1cc(=O)n(Cc2ccccc2)c2cc(OCc3nnn[nH]3)cc(OCc3nnn[nH]3)c12 | 246 to 249 °C
27 | CC(C)(CO)NS(=O)(=O)c1cccc(NC(=O)c2cnn3c(C(F)(F)F)cc(-c4ccc(C(F)(F)F)c(Cl)c4)nc23)c1 | 251 °C
28 | c1cc2ncc3c(n2n1)N(C1CCCC1)CC3 | 181 °C
29 | O=S1(=O)NC(C2CCCCC2)Nc2cc3c(cc21)OCCO3 (centres undefined) | 196 to 200 °C
30 | CC(C)C(NS(=O)(=O)c1ccccc1)C(=O)NOCc1ccccc1 (centres undefined) | 163 to 165 °C
31 | Cc1ccc(-c2nc3sc4ccccc4n3c2CC(=O)N(C)C)s1 | 216 to 218 °C
32 | Cc1cc(C=O)c(C)c(Br)c1C | 108 to 110 °C
33 | NS(=O)(=O)c1cc(C(=O)c2cc3ccccc3o2)ccc1Cl | 167 to 170 °C
34 | Cc1nn(C)c(C)c1-c1ccc(OC2SCC(O)C(O)C2O)cn1 (centres undefined) | 132 °C
35 | FC(F)(F)c1cccc(C2OC3(CCNCC3)N3CCCCC23)c1 (centres undefined) | 158 to 160 °C
36 | COc1cc2nc(Cl)nc(N)c2c(OC)c1OC | 138 to 140 °C
37 | CS(=O)(=O)c1cc(C=O)cc(O)c1O | 169 to 171 °C
38 | COc1ccc(C(=O)Nc2ccccc2)cc1NS(=O)(=O)c1cccc([N+](=O)[O-])c1 | 208 to 210 °C
39 | CNc1nnc(-c2ccc3ncn(-c4ccc(OC(F)F)cc4)c3c2)o1 | 195 to 196 °C
40 | O=C1Cc2ccccc2C(=O)N1c1ccc(Cl)cc1 | 178 to 180 °C
41 | Nc1ccc(NC(=O)c2ccc(N)cc2O)cc1 | 235 to 238 °C
42 | CSC(=C[N+](=O)[O-])NCCCn1cc(C2=C(c3cn(C)c4ccccc34)C(=O)NC2=O)c2ccccc21 | 144 to 146 °C
43 | COc1ccc(C2SCCCS2)cc1 | 117 to 119 °C
44 | CCOC(=O)c1cnc2c(SC(=O)N3CCN(c4ccccc4OC)CC3)cccn2c1=O | 151 to 153 °C
45 | N#CCOc1cc2c(cc1C#Cc1ccccc1)NC(=O)CC(c1cccc(C#N)c1)=N2 | 212 °C
46 | C=CC(=O)NCc1ccc(CBr)cc1 | 167 °C
47 | CCOC(=O)C(=CNC1CC1)C(=O)c1cc(F)c(F)c(Cl)c1F | 78 to 80 °C
48 | CCOC(=O)c1ccc(NCCC(c2ccc(Cl)cc2)c2ccc(Cl)cc2)cc1 | 112 to 117 °C
49 | O=C(c1cnoc1)N1CCCCC1 | 78 to 81 °C
50 | COc1cc2[nH]cc(C(=O)NN3CCNC3=O)c(=O)c2cc1OC | > 300 °C

Row | SMILES | melting point
51 | CCCCc1nc2c(N)nc3cc(C)ccc3c2o1 | 187 to 188 °C
52 | Cc1cc(S)n2nc(CN=[N+]=[N-])nc2n1 | 214 to 215 °C
53 | CCOC(=O)N1CCc2nc3cccc(Cl)c3c(C)c2CC1 | 138 °C
54 | COc1cccc(NC(=O)N(C)Cc2cccc3c2C(=O)N(C2CCC(=O)NC2=O)C3=O)c1 (centres undefined) | 160 to 162 °C
55 | CN(Cc1ccc(S(C)(=O)=O)s1)C(=O)C12CC3CC(CC(C3)C1)C2 | 114 to 116 °C
56 | Cc1ccc(C)n1-c1ccc(F)c([N+](=O)[O-])c1 | 99 to 101 °C
57 | O=C(O)C1(c2cccc(C(F)(F)F)c2)CCN(Cc2ccccc2)CC1 | 243 °C
58 | NCc1ccc(-c2nc(-c3ccccc3)c(-c3ccncc3)[nH]2)cc1 | 214 to 215 °C
59 | CC(C)CN(CC(C)C)S(=O)(=O)N[C@@H](Cc1ccc(Oc2nccc3cnccc23)cc1)C(=O)O | 88 °C
60 | CC(=O)Nc1sccc1C(=O)c1ccccc1F | 144 °C
61 | CC(C)(C)OC(=O)CC[C@H](NC(=O)c1ccc(C=Cc2cnc3nc(N)nc(N)c3c2)cc1)C(=O)OC(C)(C)C | > 300 °C
62 | O=C(O)Cc1nc(-c2ccc(Cl)c(Cl)c2)oc1-c1ccoc1 | 222 to 223 °C
63 | O=c1c2cc(F)c(F)cc2nc(CSc2ncnc3[nH]cnc23)n1-c1ccccc1Cl | 208 °C
64 | Cc1ccc(C(=O)OCCO)cc1-n1c(C)cc(OCc2ccc(F)cc2CNC(=O)Nc2cc(C(C)(C)C)nn2-c2cccc(OCCO)c2)c(Cl)c1=O | 180 to 181 °C
65 | COc1ccc(Cl)cc1C(=O)Nc1ccc(CCC(=O)O)cc1 | 188 to 190 °C
66 | COc1cc2c(cc1OC)-c1ncc(C#N)c(=O)n1CC2 | 261 to 262 °C
67 | CC(C)c1nc(Cl)c2c(-c3ccc([N+](=O)[O-])o3)nn(C)c2n1 | 112 °C
68 | CP(C)(=O)CN1CCC(c2nn(-c3ccc(C(F)(F)F)cc3)c3ccccc23)CC1 | 158 to 160 °C
69 | O=Cc1cc2c3ccccc3oc2c2ccccc12 | 123 to 125 °C
70 | COc1ncnc2c(Cl)c(NC(=S)NCCN)ccc12 | 230 to 232 °C
71 | CC(=O)OCC1OC(n2c(Br)nc3cc(Cl)c(Cl)cc32)C(OC(C)=O)C1OC(C)=O (centres undefined) | < 65 °C
72 | O=c1cc(CBr)c2ccc(O)cc2o1 | 182 to 184 °C
73 | Fc1ccc2c(C3CCNCC3)n[nH]c2c1 | 214 to 216 °C
74 | CC(=O)NCc1cccc(-c2nc(=O)c3ccccc3s2)n1 | 199 to 200 °C
75 | CCC(COC)NC(=O)C(Cc1ccc(OCc2ccccc2)cc1)NC(=O)C(CC(C)C)N(C)CCC(C)C (centres undefined) | 83 to 85 °C

Row | SMILES | melting point
76 | OCCC#CC1CCC(COc2ccc(F)cc2)O1 (mixture of isomers) | 76 °C
77 | Cc1ccc(-c2ccc(Cl)c(OC3SCC(O)C(O)C3O)c2)cn1 (centres undefined) | 201 °C
78 | O=c1c(C(F)(F)F)cn(Cc2ccccc2)c(=O)n1CCCCl | 100 to 101 °C
79 | C[Si](C)(C)C#Cc1ccc(C#Cc2ccc(F)cc2)cc1 | 144 to 146 °C
80 | Oc1ccc(C2COc3c(ccc(O)c3O)C2)cc1 (centres undefined) | 225 to 226 °C
81 | CN(C(=O)C(F)(F)F)c1cnn(-c2cccc(C(F)(F)F)c2)c(=O)c1-c1cccc(C(F)(F)F)c1 | 122 °C
82 | O=C1SC(Cc2ccc(OCCn3ccc4cccnc43)cc2)C(=O)N1C(c1ccccc1)(c1ccccc1)c1ccccc1 (centres undefined) | 168 to 169 °C
83 | Clc1ccc(C=Cc2ccc(CBr)cc2)cc1 | 130 to 132 °C
84 | Nc1ncc(C(=O)NCc2ccc(C(F)(F)F)cc2)c(N2CCCC2)n1 | 227 to 228 °C
85 | CCCCc1nn(-c2cc(NC(=S)CCC)ccc2Cl)c(=O)n1Cc1ccc(-c2ccccc2S(=O)(=O)NC(=O)OC(C)(C)C)cc1F | 115 to 117 °C
86 | Cc1ccccc1-c1ccc2c(c1)c(C(=O)C(=O)O)cn2Cc1ccc(C(C)(C)C)cc1 | 97 to 98 °C
87 | CCOC(=O)c1c(C(F)(F)F)nc(C(F)(F)F)c(C(=O)OCC)c1Cl | 76 to 77 °C
88 | NC(=S)Nc1c(Cl)cccc1Cl | 158 to 160 °C
89 | Cc1cn(C)c(=O)n(-c2cc(C(=O)OC(C)C)c(Cl)cc2F)c1=O | 177 to 180 °C
90 | COc1ccc(Cn2c3c(c(C#N)c2NC2=CC(=O)CCC2)CCCC3)cc1 | 143 to 145 °C
91 | COc1ccc(-c2c(Cl)c(CN3C(=O)CCC3=O)nc3sc4c(c23)CCC(=O)C4(C)C)cc1 | 245 to 246 °C
92 | CNS(=O)(=O)CCc1ccc2[nH]cc(CCN=Cc3ccccc3)c2c1 | 146 to 148 °C
93 | Cc1c(C(=O)O)nc2c(=O)[nH]c3ccc(-n4ccnc4)cc3n12 | > 250 °C
94 | CCCCCCCC(=N)NC(=O)Nc1ccc(Cl)cc1 | 156 to 165 °C
95 | Nc1c(Cl)cc(C(O)CNCCCCCOCCc2ccccn2)cc1Cl (centres undefined) | 140 to 142 °C
96 | COc1ccc2c(=O)cc(C(OC)OC)oc2c1 | 99 to 101 °C
97 | CC(O)C1CCC2C3C=CC4=CC(=O)C5OC5C4(C)C3CCC12C (centres undefined) | 206 to 207 °C
98 | COc1ccc(CN2Cc3cncn3C(c3ccc(-c4ccc(Cl)cc4)cc3)C2=O)cc1 (centres undefined) | 270 to 273 °C
99 | CCOC(=O)C1=C(C)NC(C)=C(C(=O)OCC)C1c1ccccc1Cl | 120 to 121 °C

From a melting point compilation (Tetko et al.; mined from patent text by program, amines drawn as free bases though some values may be those of a salt)
